Columns and labels:
[1] = system: WT hepatocytes; experiment: Confocal BODIPY/TMRE imaging of lipid droplets and mitochondrial potential in hepatocytes; type: cell-based, murine; conditions: 50 μM, 48 hours
Protocol: CPACC treatment enhances adipose browning and lowers whole body weight. Given the potent mMg^2+ uptake inhibiting properties and low toxicity of CPACC, we hypothesized that CPACC could mimic Mrs2^−/− cellular phenotype. WT hepatocytes isolated from over 12 months old mice were treated with 50 μM CPACC for 48 hours. Control and CPACC treated hepatocytes were stained with BODIPY and TMRE for intracellular tracing using confocal imaging. […] Next it was determined if CPACC treatment affects the mitochondrial oxygen consumption rate. Freshly isolated WT hepatocytes were treated with 5-25 μM concentrations of CPACC for 16 hours before measurement of oxygen consumption rate. […] Since it was observed an enhancement of basal OCR in CPACC treated hepatocytes, the extracellular acidification rate was measured in control and CPACC treated hepatocytes and found it to be higher in the CPACC condition indicating higher glycolytic activity (FIG. 11G). […]
Confocal microscopic examination of cellular lipid localization and maintenance. […] Leica Application Suite X was used to quantify lipid-mitochondrial colocalization using line scan analysis followed by smooth curve fitting. […] The lipid droplet sizes and mitochondrial membrane potential were quantified using both Leica Application Suite X and ImageJ. All data was analyzed using GraphPad Prism v8.

[2] = target: T1, human MRS2 (Homo sapiens, UniProt Q9HD23); experiment: Dynamic light scattering of purified full-length MRS2 assembly; type: binding; conditions: 0.5 mM
T1 construct: 6xHis (N, cleaved yes); made in house; host or cells: BL21 (DE3) codon+ Escherichia coli, pET-28a
T1 sequence (Q9HD23 58-443): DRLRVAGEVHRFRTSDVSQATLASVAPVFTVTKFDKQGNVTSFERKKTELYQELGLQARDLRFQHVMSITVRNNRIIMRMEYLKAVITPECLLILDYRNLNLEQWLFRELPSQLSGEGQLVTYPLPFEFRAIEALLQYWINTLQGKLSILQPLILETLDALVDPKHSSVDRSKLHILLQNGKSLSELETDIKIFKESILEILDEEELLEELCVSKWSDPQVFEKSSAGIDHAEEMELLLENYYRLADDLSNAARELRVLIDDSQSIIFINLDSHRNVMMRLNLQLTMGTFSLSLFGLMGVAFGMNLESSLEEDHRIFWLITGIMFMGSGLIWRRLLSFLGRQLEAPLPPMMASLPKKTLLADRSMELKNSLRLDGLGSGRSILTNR
Protocol: Next, CPACC was assessed to determine if it directly affects the assembly of purified human MRS2 using dynamic light scattering (DLS). DLS has been used to determine whether the complex stability of proteins/channels is altered by molecular chaperones or drugs (Kitamura et al., 2006). Because of the high sensitivity of DLS to changes in complex sizes, full-length Mrs2 assembly was evaluated in the presence Ca^2+ (5 mM), Mg^2+ (5 mM), Co^2+ (5 mM) or the Mrs2 blocker CPACC (0.5 mM) (FIG. 10K, FIG. 10L, FIG. 10M, FIG. 10N, FIG. 10O). […] A concentration-response assessment confirmed robust decreases in hydrodynamic radii at all CPACC concentrations tested and as low as 10 μM (FIG. 10O).
MRS2 cloning, expression, and purification. The full length human MRS2 (NCBI accession NP_065713.1), identified as MRS258-443 (i.e. residues 58-443) and excluding the mitochondrial targeting sequence, was cloned into pET-28a using Ndel and Xhol restriction sites. […]
Dynamic light scattering (DIS). […] The sample was equilibrated for 5 min at 20° C. before 10 autocorrelation function acquisitions of 5 s each were recorded and averaged. […] The dependence of hydrodynamic size on CPACC concentration was determined using ≈0.5 mg/mL protein supplemented with 0.01 mM, 0.05 mM, 0.1 mM, 0.5 mM or 0.75 mM CPACC, using a similar experimental setup as described above and cumulants analysis.

Structure (SMILES): [NH2][Co]([NH2])([NH2])([NH2])([NH2])[Cl] [CPACC, chloropentaammine cobalt (III) chloride]
- effect on mitochondrial function (TMRE) [1]: no negative effect
- lipid droplet size ([1]; hepatocytes from over 12 months old mice): marked reduction of lipid droplet size
- full-length MRS2 complex sizes (DLS) [2]: potently decreased
